In patent US9446047B2, “Substituted 2,3-dihydro-1H-inden-1-one retinoic acid-related orphan nuclear receptor antagonists for treating multiple sclerosis” (Arrien Pharmaceuticals LLC, priority 2013, dated 2016) one finds IC50 data, which are given here for 23 compounds.

One assay concerns the target T1, RORγ-LBD (RORγt) (Homo sapiens, UniProt P51449).
T1 construct: the 6-His-(GST) RORγ-LBD was used which expressed and purified from baculovirus infected Sf-21 insect cells; made in house; host or cells: baculovirus-infected Sf-21 insect cells
T1 sequence (P51449 269-508 limits assumed): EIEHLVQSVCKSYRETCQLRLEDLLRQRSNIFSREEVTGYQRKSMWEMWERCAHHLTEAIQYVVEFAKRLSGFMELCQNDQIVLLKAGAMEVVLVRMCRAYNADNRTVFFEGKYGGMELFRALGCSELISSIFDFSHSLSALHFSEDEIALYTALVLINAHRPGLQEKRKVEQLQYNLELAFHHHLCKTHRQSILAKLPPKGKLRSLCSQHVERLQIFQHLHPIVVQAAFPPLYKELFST
Nature of the assay: TR-FRET RORγt Binding Assay. Particulars: 6-His(GST)RORγ-LBD, SRC1_2 peptide, read-out: RORγt Binding. As to the method:
TR-FRET RORγt Binding Assay: RORγ-LBD contains a 6-His and GST tag peptide from SRC1-2 an aminoterminal biotinyl-[…] was employed and the 6-His-(GST) RORγ-LBD was used which expressed and purified from baculovirus infected Sf-21 insect cells from Invitrogen and purified using glutathione sepharose. […] The peptide binding due to dose-curves of compounds was added the 0.1% DMSO. Fluorescence at wavelength 340 nm was read in each well of […] using an Envision fluorescence reader in Time Resolved mode after overnight incubation at 4° C.
On the technique in general: In TR-FRET formats the signal depends on donor and acceptor labels being close together.

In a further assay the target is T2, RORγt (Homo sapiens, UniProt P51449).
T2 construct: host or cells: IL-17A Prom/LUCPorter HEK 293 cell line (IMGENEX, IML-301)
T2 sequence (P51449 1-497 isoform P51449-2): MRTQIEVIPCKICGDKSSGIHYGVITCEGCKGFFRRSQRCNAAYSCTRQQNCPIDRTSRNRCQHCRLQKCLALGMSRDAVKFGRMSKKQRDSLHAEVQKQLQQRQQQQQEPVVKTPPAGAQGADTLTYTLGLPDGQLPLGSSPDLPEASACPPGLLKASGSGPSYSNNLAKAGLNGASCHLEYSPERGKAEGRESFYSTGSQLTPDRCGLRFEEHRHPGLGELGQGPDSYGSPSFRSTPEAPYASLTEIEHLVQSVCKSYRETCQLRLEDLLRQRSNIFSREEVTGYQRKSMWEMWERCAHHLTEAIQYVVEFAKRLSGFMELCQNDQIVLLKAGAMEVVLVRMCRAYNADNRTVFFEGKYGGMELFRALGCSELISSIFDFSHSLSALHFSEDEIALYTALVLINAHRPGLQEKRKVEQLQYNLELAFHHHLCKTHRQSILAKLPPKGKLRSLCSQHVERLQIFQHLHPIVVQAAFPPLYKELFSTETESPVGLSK
Nature of the assay: RORγt-activated IL-17A Prom/LUCPorter HEK 293 cells luciferase reporter assay. Particulars: IL-17A Prom/LUCPorter HEK 293 cells transfected with RORγt, 16 h; read-out: RORγt Cell Specific. In kind it is cell-based. The protocol: Antagonistic (or inverse agonistic) effects of the test compounds on the RORγt-activated IL-17A Prom/LUCPorter™ HEK 293 cells were analyzed and IC50 of each compound was evaluated. […] Luciferase activity was analyzed using the luciferase reporter assay reagent (IMGENEX, LS100). The data were analyzed using Excel and Prism software. Percent activity was defined as 100×(1−(Well−Control A)/(Control B−Control A)), where Control A was the wells containing cells transfected with RORγt and Control B was the wells containing non-transfected cells. Both Controls A and B were treated with vehicle alone.
In general terms: A reporter such as luciferase makes a cellular process visible.

The test system of assay [1] is IL-17 release from CD4+ T cells. In words: Cytokine IL-17 estimation by HTRF, IL-17 release from CD4+ T cells. In kind it is cell-based. As to conditions: Homo sapiens, IL-17 release from CD4+ T cells, HTRF, read-out: IL-17 Inhibition. An excerpt: The assay was designed to assess the potency of test compounds on IL-17 cytokine release from CD4+ T cells. In order to aid in the identification of potent inhibitors, the IC50's determined for the test compounds IL-17 release from CD4+ T cells through the generation of 10 point Dose Response Curves (DRC). Assay methods used to quantify IL-17 secretion is HTRF (Homogenous Time Resolved Fluorescence). IL-17 secreted is detected by anti-IL-17 MAb labeled with XL665, the second MAb labeled with Cryptate, which binds to specific epitopes of human IL-17. Upon close proximity of both acceptor and donor energy transfer (FRET) occurs. This technique has been further enhanced by using long-lived labels combined with the detection on a time-resolved fluorescence basis, allowing […] of prompt fluorescence interferences.
The assay was performed according to manufacturer's instruction. All the reagents were reconstituted according to instructions provided. The reagents were dispensed into a half area 96-well plate in the following order: […] or sample, IL-17 MAbXL665 and 5 μL IL-17 Cryptate. For the negative control, the standard or sample is replaced by […]. The plate is covered with a plate sealer and incubated at rt for 2 h. Following incubation, the plate sealer is removed and the plate is read using HTRF protocol on Envision Microplate reader. All of the data analysis was carried out using Microsoft Excel (2010) and IC50 was determined using GraphPad Prism 4 software. % Inhibition of the test compounds were determined utilizing the following formula: % Inhibition=100−(100*(Average Test Compound Counts−Average Negative Control Counts)/(Average Positive Control Counts−Average Negative Control Counts)).
We have established robust in vitro cell-based HTRF assay for the activation and stimulation of CD4+ T lymphocytes to T helper 17 (Th17) cell differentiation and IL-17 production.

Take `COc1cc2c(c(N3CCOCC3)c1OC)CC(Cc1ncccc1C(F)(F)F)C2=O` (stereo not drawn) [compound 123, 5,6-dimethoxy-4-morpholino-2-((3-(trifluoromethyl)pyridin-2-yl)methyl)-2,3-dihydro-1H-inden-1-one]: the IC50 (at RORγ-LBD (RORγt); at RORγt; in assay [1]) was > 1000 nM each time.
For `COc1cc2c(cc1N1CCOCC1)CC(Cc1c(Cl)cccc1C(F)(F)F)C2=O` (stereo not drawn) [compound 59, 2-(2-chloro-6-(trifluoromethyl)benzyl)-6-methoxy-5-morpholino-2,3-dihydro-1H-inden-1-one], the IC50 at RORγ-LBD (RORγt) was > 1000 nM; at RORγt it was > 10000 nM; in assay [1], > 1000 nM.
As for `COc1ccc2c(c1)CC(Cc1ncccc1C(F)(F)F)C2=O` (stereo not drawn) [compound 184], the results for the IC50 (at RORγ-LBD (RORγt); at RORγt; in assay [1]) were < 500 nM, > 1000 nM and < 500 nM, respectively.
In the case of `COc1cc2c(cc1N1CCOCC1)CC(Cc1cc(Br)cc(OC(F)(F)F)c1)C2=O` (stereo not drawn) [compound 32, 2-(3-bromo-5-(trifluoromethoxy)benzyl)-6-methoxy-5-morpholino-2,3-dihydro-1H-inden-1-one], the results for the IC50 (on RORγ-LBD (RORγt); at RORγt; in assay [1]) were < 500 nM, < 500 nM and > 1000 nM, respectively.
With `COc1cc2c(cc1N1CCOCC1)CC(Cc1cncc(C(O)(C(F)(F)F)C(F)(F)F)c1)C2=O` (stereo not drawn) [compound 245], the IC50 on RORγ-LBD (RORγt) is > 1000 nM; at RORγt, < 500 nM; in assay [1], > 1000 nM.
Turning to `COc1cc2c(cc1N1CCC(F)CC1)CC(Cc1ncccc1C(F)(F)F)C2=O` (stereo not drawn) [compound 151, 5-(4-fluoropiperidin-1-yl)-6-methoxy-2-((3-(trifluoromethyl)pyridin-2-yl)methyl)-2,3-dihydro-1H-inden-1-one], the IC50 (on RORγ-LBD (RORγt); at RORγt; in assay [1]) was > 1000 nM in each case.
On to `COc1cc2c(cc1NC1CCN(C)CC1)CC(Cc1ncccc1C(F)(F)F)C2=O` (stereo not drawn) [compound 146], for which the figures for the IC50 (on RORγ-LBD (RORγt); on RORγt; in assay [1]) were > 1000 nM, > 1000 nM and < 500 nM, respectively.
For `COc1cc2c(cc1N1CCN(C)CC1)CC(Cc1cccc(C(F)(F)F)c1)C2=O` (stereo not drawn) [compound 103, 6-methoxy-5-(4-methylpiperazin-1-yl)-2-(3-(trifluoromethyl)benzyl)-2,3-dihydro-1H-inden-1-one], the values for the IC50 (at RORγ-LBD (RORγt); on RORγt; in assay [1]) were < 500 nM, > 1000 nM and > 1000 nM, respectively.
Consider `O=C1c2ccc(O)cc2CC1Cc1ccc(SC(F)(F)F)cc1` (stereo not drawn) [compound 193], for which the IC50 (at RORγ-LBD (RORγt); on RORγt; in assay [1]) was < 500 nM throughout.
Take `COc1cc2c(cc1Cl)CC(Cc1ccc(SC(F)(F)F)cc1)C2=O` (stereo not drawn) [compound 172]: the IC50 is > 1000 nM at RORγ-LBD (RORγt), > 1000 nM on RORγt and < 500 nM in assay [1].
As for `COc1cc2c(cc1N1CCOCC1)CC(Cc1cccc(C(O)(C(F)(F)F)C(F)(F)F)n1)C2=O` (stereo not drawn) [compound 266], the IC50 (on RORγ-LBD (RORγt); at RORγt; in assay [1]) was < 500 nM throughout.
`COc1cc2c(cc1N1CCOCC1)CC(Cc1cc(C(F)(F)F)cc(C(O)(C(F)(F)F)C(F)(F)F)c1)C2=O` (stereo not drawn) [compound 229, 2-(3-(1,1,1,3,3,3-hexafluoro-2-hydroxypropan-2-yl)-5-(trifluoromethyl)benzyl)-6-methoxy-5-morpholino-2,3-dihydro-1H-inden-1-one]: the IC50 (on RORγ-LBD (RORγt); on RORγt; in assay [1]) was < 500 nM in each case.
With `COc1cc2c(cc1N1CCOCC1)CC(Cc1cc(Cl)ccc1C(F)(F)F)C2=O` (stereo not drawn) [compound 53, 2-(5-chloro-2-(trifluoromethyl)benzyl)-6-methoxy-5-morpholino-2,3-dihydro-1H-inden-1-one], the IC50 (at RORγ-LBD (RORγt); on RORγt; in assay [1]) was > 1000 nM throughout.
With `COc1cc2c(cc1N1CCNCC1)CC(Cc1ccc(SC(F)(F)F)cc1)C2=O` (stereo not drawn) [compound 117], the IC50 is < 500 nM on RORγ-LBD (RORγt), > 1000 nM on RORγt and > 1000 nM in assay [1].
On to `COc1cc2c(cc1N1CCN(C)CC1)CC(Cc1cncc(C(O)(C(F)(F)F)C(F)(F)F)c1)C2=O` (stereo not drawn) [compound 256], for which the IC50 (on RORγ-LBD (RORγt); at RORγt; in assay [1]) was < 500 nM in each case.
For `COc1cc2c(cc1N1CCN(C)CC1)CC(Cc1cc(C(F)(F)F)cc(C(O)(C(F)(F)F)C(F)(F)F)c1)C2=O` (stereo not drawn) [compound 240, 2-(3-(1,1,1,3,3,3-hexafluoro-2-hydroxypropan-2-yl)-5-(trifluoromethyl)benzyl)-6-methoxy-5-(4-methylpiperazin-1-yl)-2,3-dihydro-1H-inden-1-one], the IC50 (on RORγ-LBD (RORγt); at RORγt; in assay [1]) was < 500 nM each time.
On to `COc1cc2c(cc1N1CCNCC1)CC(Cc1ncccc1C(F)(F)F)C2=O` (stereo not drawn) [compound 164], for which the IC50 on RORγ-LBD (RORγt) is < 500 nM; at RORγt, > 1000 nM; in assay [1] it was < 500 nM.
`CCS(=O)(=O)Oc1cc2c(cc1OC)CC(Cc1ncccc1C(F)(F)F)C2=O` (stereo not drawn) [compound 191]: the IC50 (at RORγ-LBD (RORγt); at RORγt; in assay [1]) was < 500 nM in each case.
Consider `COc1cc2c(cc1N1CCOCC1)CC(CC1CCN(Cc3ccccc3)CC1)C2=O` (stereo not drawn) [compound 23, 2-((1-benzylpiperidin-4-yl)methyl)-6-methoxy-5-morpholino-2,3-dihydro-1H-inden-1-one], for which the IC50 on RORγ-LBD (RORγt) was < 500 nM; at RORγt, > 1000 nM; in assay [1], < 500 nM.
Take `COc1ccc2c(c1OC)CC(Cc1ncccc1C(F)(F)F)C2=O` (stereo not drawn) [compound 169]: the IC50 at RORγ-LBD (RORγt) was > 1000 nM; on RORγt, > 1000 nM; in assay [1] it was < 500 nM.
In the case of `COc1cc2c(cc1-c1ccc(OC(F)(F)F)cc1F)CC(Cc1ncccc1C(F)(F)F)C2=O` (stereo not drawn) [compound 216], the IC50 at RORγ-LBD (RORγt) was > 1000 nM; at RORγt, > 1000 nM; in assay [1], < 500 nM.
Regarding `COc1cc2c(c(N3CCN(C)CC3)c1OC)CC(Cc1ncccc1C(F)(F)F)C2=O` (stereo not drawn) [compound 128, 5,6-dimethoxy-4-(4-methylpiperazin-1-yl)-2-((3-(trifluoromethyl)pyridin-2-yl)methyl)-2,3-dihydro-1H-inden-1-one], the IC50 (on RORγ-LBD (RORγt); at RORγt; in assay [1]) was > 1000 nM each time.
For `COc1cc2c(cc1N1CCOCC1)CC(Cc1ncccc1C(F)(F)F)C2=O` (stereo not drawn) [compound 68, 6-methoxy-5-morpholino-2-((3-(trifluoromethyl)pyridin-2-yl)methyl)-2,3-dihydro-1H-inden-1-one], the IC50 (on RORγ-LBD (RORγt); at RORγt; in assay [1]) was < 500 nM throughout.
